Experiments:
[1] = tested on: ScFv FITC on CHO cells; assay: Competition binding on CHO ScFv FITC-expressing cells; conditions: in the presence of 1 nM 111In-DTPA-FITC as tracer
Procedure: Wild-type or ScFv FITC-expressing cells were plated at 3×10^4 cells/well in 96-well plates one day before binding experiments. […] Cells were gently agitated for 45 minutes at rt and then washed three times 250 ul/well PBS at 4 degrees C. […] For competition experiments, competitor compounds were diluted in 50 ul/well of PBS, 0.1% BSA and added first to washed wells containing cells as above. […] Incubations, washes and counting were performed as above.

[2] = tested on: Wild-type CHO cells; assay: FACS staining of wild-type CHO cells; assay type: binding
Procedure: (§1) Stable transfectants were isolated essentially as described (Mattheakis et al., 1999). All ScFv FITC expression constructs contain a neo resistance cassette. Primary G418-resistant populations were stained with mAb 179 labeled with fluorescein as follows. Antibody 179 was linked to fluorescein using fluorescein isothiocyanate (FITC, Molecular Probes, Eugene, Oreg.). This modified mAb 179 contained on average six fluoresceins per antibody molecule. Cells, ˜3-5×10^6, were resuspended in 500 μl of PBS, 0.1% BSA containing mAb 179-FITC at a final concentration of 8 μg/ml. Cells were rotated in the dark for 45 min, spun down, and subsequently resuspended in PBS and enrich sorted using a FACStar plus (Becton-Dickinson, San Jose, Calif.) based on the highest fluorescence. Enriched populations were cloned by limiting dilution and subsequently screened by ELISA. Briefly, 96well plates of clones were fixed with 200 μl per well of ice cold methanol for 10 min. Subsequent steps were done at room temperature (rt). Plates were blocked with PBS, 1% BSA for 30 min and then incubated with mAb 179, 1 μg/ml in PBS, 0.1% BSA for 1h. After 3 washes of 10 min each with PBS, wells were incubated with 1 μg/ml goat anti-mouse-HRP (Pierce, Rockford, Ill.) in PBS, 0.1% BSA for 1 h, washed with PBS three times as above, developed with a TMB peroxidase substrate colorometric assay ( Kirkegaard & Perry Laboratories, Gaithersburg, Md.) and the OD415 measured. Reactive clones were expanded, stained with mAb 179-fluorescein as above and analyzed using a FACScan (Becton-Dickinson, San Jose, Calif.) to choose those with the highest expression of the ScFv based on fluorescence. Clones were also analyzed by anti-179 Western blotting to verify the size of the ScFv protein expressed. ScFv-expressing clones were compared to wild-type CHO-K1 cells by FACScan using further reagents as follows in PBS, 0.1% BSA as above for mAb 179-fluorescein staining. FITC-BSA (Sigma, St. Louis, Mo.) was used at a final concentration of 20 μg/ml and DTPA-FITC and In-DTPA-FITC were each used at a final concentration of 2 μg/ml.

[3] = tested on: FITC ScFv expressed on CHO cells; assay: FACS staining of CHO cells expressing FITC ScFv; assay type: binding
Procedure: as §1

Compound	IC50 [1] [nM]	Mean (fluorescence, FACS) ([2]; marker A11)	Median (fluorescence, FACS) ([2]; marker A11)	Mean (fluorescence, FACS) ([2]; marker M1)	Median (fluorescence, FACS) ([2]; marker M1)	Mean (fluorescence, FACS) ([3]; marker A11)	Median (fluorescence, FACS) ([3]; marker A11)	Mean (fluorescence, FACS) ([3]; marker M1)	Median (fluorescence, FACS) ([3]; marker M1)
O=C1OC2(c3ccccc31)c1cc(I)c(O)c(I)c1Oc1c2cc(I)c(O)c1I [erythrosine, reference compound]	309	–	–	–	–	–	–	–	–
Diethylenetriaminepenta-acetic acid (DTPA) coupled to fluorescein [DTPA-FITC]	11.8	13.89	7.99	8.24	7.84	100.62	90.58	98.06	91.40

From patent US20030033616A1, “Imaging marker transgenes” (priority 2001, published 2003)
